Experimental data as given in US20200360332A1, “COMPOUND FOR USE IN THE INCREASING OF MENTAL CAPACITY” (LEIBNIZ-INSTITUT FUER NEUROBIOLOGIE (LIN) STIFTUNG DES …, priority 2017, published 2020).

Key:
[1] = test system: Drosophila melanogaster larvae; assay: Learning experiment E (scent/fructose reward) with Drosophila melanogaster larvae raised on feed mash containing the compound; format: in vivo; conditions: for learning and memory capability P vs control K (Example 2): 7.1×10^−7 M (700 nM) final concentration in feed mash; for improvement in learning capability compared with FSE-20 (summary statement): Drosophila larvae, effect of FSE-20>FSE-16>>FSE-8
Experimental: Depicted in FIG. 1A is an overview of a learning experiment E with Drosophila melanogaster larvae. […] One group represents the control group K, which was raised with standard feed mash, and the three other groups were each raised with different concentrations of FSE-20 (7.1×10^−8, 7.1×10^−7, and 7.1×10^−6[M] FSE-20) in the feed mash. After 5 days (arrow with “5d”), the learning experiment E was carried out. In the learning experiment E, the animals were each subjected to one of two inverse training regimens A and then subjected to a test B. The first group I was presented in training A with a first scent with the feed reward (fructose), while a second scent was presented alone (first scent+/second scent). In FIG. 1A, the first scent is depicted as a white square and the second scent as a black square. […] The second group II was trained inversely (first scent/second scent+). In test B of the learning experiment E, it was subsequently examined whether the larvae of the two groups I, II prefer the first scent or the second scent in a selection situation and thus their learning and memory capability (performance index) P was determined. Shown in FIG. 2A is an overview with the compounds used in this example as additions to the feed mash. One group of the Drosophila melanogaster larvae was the control group K, which was raised with standard feed mash. Furthermore, one group was raised with FSE-20 in a concentration of 7.1×10^−7 M in the feed mash. The other groups were raised with a concentration of 7.1×10^−7 M of the different FSE-20 derivatives in the feed mash. These FSE-20 derivatives comprise FSE-8, FSE-12, FSE-16, 4OH-ZSE-20, and DH-FSE-20. After five days (arrow with “5d”), the Drosophila melanogaster larvae were tested in the learning experiment E, as described in Example 1.

[2] = test system: hippocampal CA1 mouse cells; assay: Ex vivo patch-clamp electrophysiological recordings on hippocampal CA1 pyramidal cells; format: cell-based, mice; conditions: for number of action potentials vs control K: current intensities of 40 to 440 pA
Experimental: The patch-clamp method was carried out on whole CA1 pyramidal cells from “acute” (freshly prepared) hippocampus slices of four-to-six-week-old male mice in order to measure the effects of FSE-20 on neuronal excitability.
Shown are the action potentials of the control K as well as those of the cells treated with FSE-20.
Depicted in FIG. 5B is a graphic illustration in which the number of action potentials is shown in relation to the injected current intensity (pA) of the differently treated cells and of the control group K.

[3] = test system: older Drosophila melanogaster flies; assay: Learning experiment E with mature, older Drosophila melanogaster flies fed FSE-20; format: in vivo
Experimental: In this experiment, the flies were divided into two groups, a control group K, which was fed with standard feed, and a test group, for which FSE-20 was added to the feed. The concentration of FSE-20in the feed was 7.1×10^−7 M. The flies were tested in a learning experiment E, corresponding to the principle of Example 1, 15 days (arrow with “15d”) after the adult animals had hatched.

[4] = test system: mice; assay: Learning experiment E in mice (conditioned fear, freezing) after intraperitoneal injection; format: in vivo; conditions: 6 mg/kg i.p. prior to training
Experimental: In order to determine the effect of FSE-20 on the learning and memory capability P in 3- to 4-month-old mice, the animals underwent intraperitoneal injection with an FSE-20 solution (6 mg/kg body weight) prior to the training A. In the learning experiment E on the next day, the animals were placed in a specific environment during the training A, while the mice were subjected at the same time to an aversive electrical stimulus (lightning symbol). Subsequently, in the first test B-1 one day later (1 d), the nonspecific fear reaction (freezing) F was measured in a neutral environment, that is, in an environment that was new for the animals. In the second test B-2, two hours (2 h) after the first test B-1, the fear reaction in the environment was measured, in that the animals were presented with the electrical stimulus during the training A (conditioned environment).
Shown in FIG. 4B is a graphic illustration that summarizes the results of the learning experiment E on mice. […] The first span of time of the second test comprises the 1st-5th minute and the second span of time comprises the 6th-10th minute. The result of the first span of time is represented as black bars and the result of the second span of time is represented as white bars with black longitudinal stripes.

In the case of `CCCCCCCCCCCCOC(=O)/C=C/c1ccc(O)c(OC)c1` [FSE-12, dodecyl (2E)-3-(4-hydroxy-3-methoxyphenyl)prop-2-enoate], the “learning and memory capability P vs control K (Example 2)” value ([1]; larvae, 5 days) was “slight increase”.
In the case of `CCCCCCCCCCCCCCCCOC(=O)/C=C/c1ccc(O)c(OC)c1` [FSE-16, hexadecyl (2E)-3-(4-hydroxy-3-methoxyphenyl)prop-2-enoate], the “improvement in learning capability compared with FSE-20 (summary statement)” value [1] was “less pronounced” and the “learning and memory capability P vs control K (Example 2)” value ([1]; larvae, 5 days) was “increases learning”.
With `CCCCCCCCOC(=O)/C=C/c1ccc(O)c(OC)c1` [FSE-8, octyl (2E)-3-(4-hydroxy-3-methoxyphenyl)prop-2-enoate] the “improvement in learning capability compared with FSE-20 (summary statement)” value [1] was “less pronounced” and the “learning and memory capability P vs control K (Example 2)” value ([1]; larvae, 5 days) was “increases the learning and memory capability P”.
`CCCCCCCCCCCCCCCCCCCCOC(=O)/C=C/c1ccc(O)cc1` [4OH-ZSE-20, icosyl (2E)-3-(4-hydroxyphenyl)prop-2-enoate] was tested, and the “improvement in learning capability compared with FSE-20 (summary statement)” value [1] was “weaker, but still marked activity” and the “learning and memory capability P vs control K (Example 2)” value ([1]; larvae, 5 days) was “slight increase”.
For `CCCCCCCCCCCCCCCCCCCCOC(=O)/C=C/c1ccc(O)c(OC)c1` [FSE-20, icosyl (2E)-3-(4-hydroxy-3-methoxyphenyl)prop-2-enoate], the “learning and memory capability of larvae (summary statement)” value ([1]; added to feed of larvae) was “significantly in a dose-dependent manner”, the “concentration at which an effect is seen” value ([1]; in feed mash) was 700 nM and the “improvement of learning and memory capability P” value ([1]; larvae, 700 nM in feed mash, 5 days) was “approximately 50%”. For the same compound, the “learning and memory capability P vs control K (Example 2)” value ([1]; larvae, 5 days) was “marked increase”, the “learning and memory capability P (performance index) vs control K” value ([1]; larvae, 7.1×10^−8, 7.1×10^−7 or 7.1×10^−6 M in feed mash, 5 days) was “increased” and the “learning and memory capability P” value ([1]; larvae, very high concentrations starting at 7 μM in feed mash, 5 days) was “declines once again”. The “learning and memory capability P” value ([1]; larvae, very low concentration, 70 nM in feed mash, 5 days) was “increase in learning tendency”, the “number of action potentials vs control K” value ([2]; 1 μM) was “increased significantly” and the “number of action potentials vs control K” value ([2]; 4 μM) was “increased significantly”. For the same compound, the “excitability of pyramidal CA1 hippocampus cells” value ([2]; ex vivo, summary statement) was “increases in a dose-dependent manner”, the “improvement of learning and memory capability P in older animals” value ([3]; 7.1×10^−7 M in feed, tested 15 days after hatching) was “approximately 50%” and the “learning capability of older flies (summary statement)” value ([3]; FSE-20 in feed) was “doubled”. For the same compound, the “fear behavior (freezing) F in second half (6th-10th minute) compared with first half (1st-5th minute)” value ([4]; mice 3-4 months, second test B-2, conditioned environment) was “just as strongly pronounced” and the “memory stability vs control” value ([4]; mice) was “more stable memory over time”.
For `CCCCCCCCCCCCCCCCCCCCOC(=O)CCc1ccc(O)c(OC)c1` [DH-FSE-20, icosyl 3-(4-hydroxy-3-methoxyphenyl)propanoate], the “improvement in learning capability compared with FSE-20 (summary statement)” value [1] was “less pronounced” and the “learning and memory capability P vs control K (Example 2)” value ([1]; larvae, 5 days) was “increases learning and memory”.
